Experiment [1] concerns HIV strains NLA3, HXB and JR-CSF. The experiment can be described thus: HIV strain screening. It counts as cell-based. The conditions noted are these: FIG. 13. The source says:
Small molecules were also screened for their effectiveness against various HIV strains. For example, the effects of small molecules of interest on HIV strains NLA3, HXB and JR-CSF were studied. […] FIG. 13. Further, small molecules were screened for their effectiveness against other HIV drugs that have different modes of action. For example, various small molecules of interest in the initial screen were studied for their effectiveness relative to protease inhibitors (Saquinavir by Roche) and reverse-transciptase inhibitors (Nevirapine by Boehringer Ingelheim) against various strains, including tri-therapy resistant HIV strains. FIGS. 13 and 14. In one specific study, the effect of small molecules on cell culture HIV viral propagation was compared to no drug (by reviewing % Relative Luminescence Unit (RLU)). Small molecules were also compared to Saquinavir and Nevirapine in both standard HIV strain and Tri-therapy resistant HIV strains. FIG. 14.

For the next experiment, the system named is HIV (strain NL4-3). The experiment is described as follows: HIV cell based assay (Level 1 / Level 2 Screen; CFAR assay): 293T transfection, TZM-bl infection, luciferase. Set-up: species or system HIV-1. The settings on record: for Anti-HIV bioactivity of hits and analogs: second round with analogs, FIGS. 12 A, B, C. How it is done: Five hundred of the 1000 small molecule hits, having the highest binding affinity with the ASL's hypermodifications, were selected for screening at high concentration against HIV infected mammalian cells (FIG. 10). Briefly, toxicity was first assessed in 293T cells in 96-well plates (10^4 cells/well) by adding 50, 5 and 0.5 μM of small molecules in triplicate at each concentration. After two days, cells were assessed for poor growth versus control cells. Once the concentration of the small molecules at which the cells looked normal was established, these molecules were screened for anti-HIV activity through a transfection/infection protocol. An infectious molecular clone of HIV (strain NL4-3) was transfected into 293T cells using FuGene6 (Roche). After four hours, the cells were split into 96-well plates (10^4 cells/well) and the small molecules were added at the appropriate concentration in triplicate. After 48 hours of incubation of cells in the presence of the small molecules, virus-containing medium (50 μL) was removed from each well and transferred into a fresh 96-well plate containing TZM-bl cells for infection (10^4 cells/well). After 48 hours, the cells were assayed for luciferase expression. Controls were untransfected 293T cells and transfected cells without the small molecules added. Results from various small molecules with the best inhibition of HIV are shown in (FIG. 10). Active small molecules 2493, 9324, 8317, 2725, 3643, 2491, 12327, 14094, 12204, 12744, 12745, 12542, 18198, 18200, 8391, 6188, 16286 and 2712 have 80-95% inhibitory effect on the HIV propagation. These small molecules with bioactivity against HIV propagation are an example of some the hits further tested in a concentration-dependent screening.
Bioactive molecules selected in Level 1 Screen were tested using the cell based assay in a concentration (dose)-dependent manner for their ability to inhibit HIV propagation (FIG. 11). The HIV cell based assay experimental protocol described in Level 1 screen was used to conduct the Level 2 Screen. […] In addition to the concentration-dependent, cell based assay, the inhibitory activities of the active molecules identified in Screen Level 1 were also assessed using the MBS assay. This assay has been developed and standardized to mimic the unique properties characteristic of the HIV viral protein recruitment and preparation of the human host tRNA3^Lys as primer of reverse transcription. Thus, the cell-based assay and the “MBS” assay were used to confirm the mechanism of action of the hits against the functional interaction of htRNA3^Lys with HIV proteins. The MBS is a “mix and measure” assay that consists of the formation of a complex between the fluorescent peptide P6 and the fully modified anticodon stem and loop of htRNA3^Lys. The concentration of the small molecules was 150 μM i.e. 300 fold of that of P6. […] In the presence of various selected active molecules, inhibition of the complex between P6 and hASL3^Lys was observed (FIGS. 12 A, B and C). The results of these experiments allowed identification and concentration towards a smaller pool of active molecules.
In order to confirm the activity of the small molecules showing potential anti-HIV inhibition, a second round of testing using their analogs (˜20 analogs were chosen for each selected active small molecule) was initiated using the same cell based assay employed in Level 1 Screen and Level 2 Screen. […] The quality and structure of the small molecule hits and their respective analogs were confirmed by NMR and Liquid Chromatography coupled with Mass Spectrometry (LC-MS).
Dose response data of the active molecules were generated by running the biochemical and functional assays at varying concentration. The potency properties which is one of the characteristics that defines a hit, is evaluated based on the criteria that potency (IC50)<3 μM in the MBS assay and EC50<10 μM in the HIV cell based assay (See FIG. 19). […]

For experiment [2], the system named is hASL3^Lys-mcm^5s^2U34;ms^2t^6A37;Ψ39. The experiment can be described thus: Mechanism based secondary (MBS) assay: competition with fluorescent peptide P6 for hASL3^Lys. Format: binding, human. The settings on record: complex formation in the absence of small molecules. From the text: In order to identify a set of small molecule ‘hits’, that inhibit viral recruitment or viral preparation of htRNA3^Lys, the inventors developed a microtiter plate-based fluorescence assay. This mechanism based secondary (MBS) assay uses selected peptides that best mimic HIV proteins in their binding to htRNA3^Lys. The present invention uses the above-mentioned MBS assay to identify small molecule bioactive hits against a host cell RNA interaction with HIV proteins critical to viral replication. These hits can now be optimized into a completely different class of HIV drug, one that is far less likely to elicit drug resistance. The present invention is exploiting affinity selected peptides as tools to investigate and understand RNA chemistry and structure, including naturally occurring modifications, as identity elements for HIV protein recognition of the human tRNA3^Lys.
MBS assay is based on phage display selected peptides that mimic HIV proteins by binding with high affinity and specificity to only the portion of the htRNA3^Lys of interest, the hASL3^Lys (Graham et al., J. Mol. Biol. 2011, 410(4):698-715; Vendeix et al., J. Mol. Biol. 2012, 416(4):467-85). […] The MBS assay is readily amenable to thermodynamic and structural analyses and nucleotide and peptide amino acid changes for optimization. […]

Experiment [3] concerns the target hASL3^Lys-mcm^5s^2U34;ms^2t^6A37;Ψ39. The experiment can be described thus: Fluorescence quenching binding of P6 / NCp7 to fully modified hASL3^Lys. Set-up: species or system human. The settings on record: FIGS. 5 and 6. The source says:
(§1) The phage-display selection of peptides was completed (randomized 15 mers, and 16 mers with cysteines at two sites for the possible generation of Zn^+2 ‘knuckles’ structures reminiscent of the HIV protein, NCp7) against the fully modified anticodon stem and loop domain of htRNA3^Lys with 5-methoxycarbonylmethyl-2-thiouridine at position 34, 2-methylthio-N^6-threonylcarbamoyladenosine-37 and pseudouridine-39 (hASL3^Lys-mcm^5s^2U34;ms^2t^6A37;Ψ39) covalently attached to microtiter avidin-plates with biotin. In reiterative and competitive phage-display library selections, the two libraries yielded 20 recurring peptide sequences that had reasonable solubility among 155 sequenced clones (Table 2). The hASL3^Lys binding properties of the peptides were characterized using chemically synthesized peptides with an N-terminal fluorescent reporter. One strongly binding, highly specific peptide (P6) was selected. Its ability to mimic the binding of the natural HIV protein, NCp7, to modified htRNA3^Lys was validated. […] Footprinting of P6 on the modified hASL3^Lys by high resolution mass spectrometry indicated conclusively that the anticodon and 3′-adjacent side of the loop were protected (Graham et al., supra).

In the next experiment the target is unmodified ASL3^Lys. The experiment can be described thus: Fluorescence quenching binding of P6 / NCp7 to unmodified ASL3^Lys. Also on record: species or system human. The settings on record: modification-dependency.
Text: as §1

The subject of the next experiment is hASL3^Lys. The experiment can be described thus: Circular dichroism of NCp7 and P6 complexes with hASL3^Lys. Set-up: species or system human. The settings on record: decrease in CD ellipticity with increasing amounts, FIG. 7. Background: CD spectra are sensitive to the conformation of chiral molecules.
Setting [4] is: Human immunodeficiency virus 1, NL43, read-out: IC 50 (units).

Read-outs that look alike come from different tables or passages of the source.

For `Cc1cc(NC(=O)C(=O)NC2CC(C)(C)NC(C)(C)C2)ccc1Br` [Compound 1668-18, N^1-(4-bromo-3-methylphenyl)-N^2-(2,2,6,6-tetramethylpiperidin-4-yl)oxalimide], the “Inhibiting infection of HIV strains relative to no addition of drug” value in experiment [1] was “particularly effective”. Besides, the “Anti-HIV bioactivity of hits and analogs” value in the experiment on HIV (strain NL4-3) is “some of the most bioactive inhibitors”.

With `COc1cc2c(cc1OC)C1=C(C#N)CC/C(=N\C(=O)c3ccco3)N1CC2` [Compound 18200-2, (E)-N-(1-cyano-9,10-dimethoxy-6,7-dihydro-2H-pyrido[2,1-a]isoquinolin-4(3H)-ylidene)furan-2-carboxamide], the “Anti-HIV bioactivity of hits and analogs” value in the experiment with HIV (strain NL4-3) is “some of the most bioactive inhibitors”.

In the case of `COc1cc2c(cc1OC)C1=C(C#N)CCC(=O)N1CC2` [Compound 18200-3, 9,10-dimethoxy-4-oxo-3,4,6,7-tetrahydro-2H-pyrido[2,1-a]isoquinoline-1-carbonitrile], the “Anti-HIV bioactivity of hits and analogs” value with HIV (strain NL4-3) was “some of the most bioactive inhibitors”.

As to `NS(=O)(=O)c1cccc(NC(=O)Nc2ccc(Cl)c(Cl)c2)c1` [Compound 2491, 3-(3-(3,4-dichlorophenyl)ureido)benzenesulfon-amide], in the experiment with HIV (strain NL4-3) (Human immunodeficiency virus 1, NL43, other small molecule table, assay not given, values lie in the CFAR range of b151, read-out: IC 50), the IC50 turned out to be 75 µM.

With `COCCNC(=O)c1ccc2c(=O)n(CCC3=CCCCC3)c(=S)[nH]c2c1` [Compound 6188-1, 3-(2-cyclohexenylethyl)-N-(2-methoxyethyl)-4-oxo-2-thioxo-1,2,3,4-tetrahydroquinazoline-7-carboxamide], in the experiment on HIV (strain NL4-3) (Human immunodeficiency virus 1, NL43, quinazoline table, assay not given, value lies in the CFAR range of b151, read-out: IC50), the IC50 turned out to be 3.3 µM.

As for RVTHHAFLGAHRTVG [Compound P6], the “Quenching of the fluorescence of the fluorescein-tagged P6 by hASL3^Lys” value in experiment [2] is approximately 80%. Further, the Kd in experiment [3] was determined as 450 ± 50 nM. In addition, the “Kd with unmodified ASL3^Lys” value on unmodified ASL3^Lys is given as “incalculable”. Moreover, the “Effect on hASL3^Lys structure by circular dichroism” value in the experiment with hASL3^Lys is listed as “denature the hASL3^Lys structure”.

As to `CC1(C)CC(NC(=O)COc2ccc3ccccc3c2Br)CC(C)(C)N1` [Compound 1668-17, 2-(1-bromonapthalen-2-yloxy)-N-(2,2,6,6-tetramethylpiperidin-4-yl)acetamide], the “Anti-HIV bioactivity of hits and analogs” value with HIV (strain NL4-3) is “some of the most bioactive inhibitors”.

Take `CC1CCCC(C)N1C(=O)COc1ccc(C(C)(C)C)cc1Br` (stereo not shown) [Compound 1668-12, 2-(2-bromo-4-tert-butylphenoxy)-1-(2,6-dimethylpiperidin-1-yl)ethanone]: the “Anti-HIV bioactivity of hits and analogs” value with HIV (strain NL4-3) is given as “showed potential anti-HIV inhibition”.

In the case of `CC(C)c1ccc(OCC(=O)N2C(C)CCCC2C)c(Br)c1` (stereo not shown) [Compound 1668-1, 2-(2-bromo-4-isopropylphenoxy)-1-(2,6-dimethylpiperidin-1-yl)ethanone], the IC50 in the experiment with HIV (strain NL4-3) (setting [4]) was determined as 34 µM.

With `O=[N+]([O-])c1cccc(Nc2nc(O)nc(N3CCCCC3)n2)c1` [Compound 8391-5, 4-(3-nitrophenylamino)-6-(piperidin-1-yl)-1,3,5-triazin-2-ol], in the experiment on HIV (strain NL4-3), the “Anti-HIV bioactivity of hits and analogs” value is recorded as “showed potential anti-HIV inhibition”.

On to `c1ccc(Nc2nc(Nc3ccccc3)nc(N3CCNCC3)n2)cc1` [Compound 8391-6, N^2,N^4-diphenyl-6-(piperazin-1-yl)-1,3,5-triazine-2,4-diamine], for which, in the experiment with HIV (strain NL4-3) (setting [4]), the IC50 turned out to be 5.3 µM.

Consider `COc1cc2c(cc1OC)C1=C(C#N)CC/C(=N\C(=O)c3ccc(Cl)cc3)N1CC2` [Compound 18200-4, (E)-4-chloro-N-(1-cyano-9,10-dimethoxy-6,7-dihydro-2H-pyrido[2,1-a]isoquinolin-4(3H)-ylidene)benzamide], for which, in the experiment with HIV (strain NL4-3) (Human immunodeficiency virus 1, NL43, isoquinoline table, assay not given, value lies in the CFAR range of b151, read-out: IC 50), the IC50 was 14 µM.

In general, Kd refers to the constant that tells how readily two partners part at equilibrium. Higher therefore signals a looser complex.

These data come from patent US9775835B2 (priority 2012, dated 2017).
